Data taken from US20240228489A1, “POSITIVE ALLOSTERIC MODULATORS OF THE MUSCARINIC ACETYLCHOLINE RECEPTOR M1” (Vanderbilt University, priority 2021, published 2024).

Columns and labels:
human mAChR M1 [1] = molecular target: T1, human mAChR M1 (Homo sapiens, UniProt P11229); test: mAChR M1 cell-based functional assay (calcium mobilization), agonist mode: compound alone, Emax relative to acetylcholine maximum; settings: for EC50 / Agonist Activity Human M1 EC50: human mAChR M1; for Emax: relative to the maximum for acetylcholine
T1 sequence (P11229 1-460): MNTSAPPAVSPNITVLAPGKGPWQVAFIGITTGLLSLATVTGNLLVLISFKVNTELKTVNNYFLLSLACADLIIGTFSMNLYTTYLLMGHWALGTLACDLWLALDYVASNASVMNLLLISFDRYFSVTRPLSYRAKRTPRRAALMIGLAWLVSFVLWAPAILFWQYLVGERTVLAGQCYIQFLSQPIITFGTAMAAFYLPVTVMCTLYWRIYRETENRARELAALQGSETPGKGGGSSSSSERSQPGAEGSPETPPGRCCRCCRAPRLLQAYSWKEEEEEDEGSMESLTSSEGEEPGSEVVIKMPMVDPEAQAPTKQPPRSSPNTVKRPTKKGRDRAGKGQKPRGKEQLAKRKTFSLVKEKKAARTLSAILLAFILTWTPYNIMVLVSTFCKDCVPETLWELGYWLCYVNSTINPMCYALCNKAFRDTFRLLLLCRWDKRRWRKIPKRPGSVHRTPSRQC
From the text: (§1) Chinese hamster ovary (CHO-K1) cells stably expressing rat (r)M1 were purchased from the American Type Culture Collection and cultured according to their indicated protocol. CHO cells stably expressing human (h)M2, hM3, and hM5 were described previously (Levey, et al., 1991); hM1 and hM4 cDNAs were purchased from Missouri S&T cDNA Resource; rM4 cDNA was provided by T. I. Bonner (National Institutes of Health, Bethesda, MD). rM2 and rM3 were cloned from a rat brain cDNA library and sequence verified. hM1, rM2, rM3, hM4, and rM4 cDNAs were used to stably transfect CHO-K1 cells purchased from the American Type Culture Collection using Lipofectamine2000. To make stable rM2, hM2, rM3, hM4, and rM4 cell lines for use in calcium mobilization assays, these cells also were stably transfected with a chimeric G-protein (Gqi5) (provided by B. R. Conklin, University of California, San Francisco) using Lipofectamine 2000. rM1, hM1, rM3, hM3, rM5, and hM5 cells were grown in Ham's F-12 medium containing 10% heat-inactivated fetal bovine serum (FBS), 20 mM HEPES, and 50 μg/mL G418 sulfate. rM2-Gqi5, hM2-Gqi5, and hM4-Gqi5 cells were grown in the same medium also containing 500 μg/mL Hygromycin B. Stable rM4-Gqi5 cells were grown in DMEM containing 10% heat-inactivated FBS, 20 mM HEPES, 400 μg/mL G418 sulfate, and 500 μg/mL Hygromycin B.
(§2) For high throughput measurement of agonist-evoked increases in intracellular calcium, CHO-K1 cells stably expressing muscarinic receptors were plated in growth medium lacking G418 and hygromycin at 15,000 cells/20 μL/well in Greiner 384-well black-walled, tissue culture (TC)-treated, clear-bottom plates (VWR). Cells were incubated overnight at 37° C. and 5% C02. The next day, cells were washed using an ELX 405 (BioTek) with four washes (80 μL) of assay buffer then aspirated to 20 μL. Next, 20 μL of 16 μM Fluo-4/acetoxymethyl ester (Invitrogen, Carlsbad, CA) prepared as a 2.3 mM stock in DMSO and mixed in a 1:1 ratio with 10% (w/v) Pluronic F-127 and diluted in assay buffer was added to the wells and the cell plates were incubated for 50 min at 37° C. and 5% C02. Dye was removed by washing with the ELX 405 (four 80 μL washes of assay buffer) then aspirated to 20 μL. Compound master plates were formatted in an 11 point CRC format (1:3 dilutions) in 100% DMSO with a starting concentration of 10 mM using the BRAVO liquid handler (Agilent). Test compound CRCs were then transferred to daughter plates (240 nL) using the Echo acoustic plate reformatter (Labcyte, Sunnyvale, CA) and then diluted into assay buffer (40 μL) to a 2× stock using a Thermo Fisher Combi (Thermo Fisher Scientific, Waltham, MA).
(§3) Calcium flux was measured using the Functional Drug Screening System (FDSS) 6000 (Hamamatsu Corporation, Tokyo, Japan) as an increase in the fluorescent static ratio. Compounds were applied to cells (20 μL, 2×) using the automated system of the FDSS 6000 at 4 s into the 300 s protocol and the data were collected at 1 Hz. At 144 s into the 300 s protocol, 10 μL of an EC20 concentration of the muscarinic receptor agonist acetylcholine was added (5×), followed by the addition of 12 μL of an EC80 concentration of acetylcholine at the 230 s time point (5×). Agonist activity was analyzed as a concentration-dependent increase in calcium mobilization upon compound addition. Emax values for agonist activity are expressed relative to the maximum for acetylcholine. Positive allosteric modulator activity was analyzed as a concentration-dependent increase in the EC20 acetylcholine response. Antagonist activity was analyzed as a concentration-dependent decrease in the EC80 acetylcholine response. Concentration-response curves were generated using a four-parameter logistical equation in XLfit curve fitting software (IDBS, Bridgewater, NJ) for Excel (Microsoft, Redmond, WA) or Prism (GraphPad Software, Inc., San Diego, CA).

human mAChR M1 [2] = molecular target: T1, human mAChR M1; test: mAChR M1 cell-based functional assay (calcium mobilization), PAM mode: increase in the EC20 acetylcholine response
From the text: as §1, §2
as §3, with “CA). […]” for “CA).”

SMILES | EC50 (human mAChR M1 [1]) | Emax (human mAChR M1 [1]) | EC50 (human mAChR M1 [2]) | Emax (human mAChR M1 [2]) | Agonist Activity Human M1 EC50 (human mAChR M1 [1])
[2H]C1([2H])c2ncccc2C(=O)N1Cc1c(F)cc(-c2ccc(OC(C)C)c3c2cnn3C([2H])([2H])[2H])cc1F [Compound 250, 6-(2,6-difluoro-4-(7-isopropoxy-1-(methyl-d3)-1H-indazol-4-yl)benzyl)-6,7-dihydro-5H-pyrrolo[3,4-b]pyridin-5-one-7,7-d2] | – | 3% | > 10000 nM | 51% | Inactive
[2H]C1([2H])c2ncccc2C(=O)N1Cc1ccc(-c2cccc3nncn23)cc1 [Compound 239, 6-(4-([1,2,4]triazolo[4,3-a]pyridin-5-yl)benzyl)-6,7-dihydro-5H-pyrrolo[3,4-b]pyridin-5-one-7,7-d2] | – | 3% | > 10000 nM | 44% | Inactive
[2H]c1nnc2cccc(-c3ccc(CN4C(=O)c5cccnc5C4([2H])[2H])cc3)n12 [Compound 240, 6-(4-([1,2,4]triazolo[4,3-a]pyridin-5-yl-3-d)benzyl)-6,7-dihydro-5H-pyrrolo[3,4-b]pyridin-5-one-7,7-d2] | – | 3% | > 10000 nM | 27% | Inactive
[2H]C1([2H])c2ncccc2C(=O)N1Cc1ccc(-c2cnc3nn(C)cc3c2)cc1F [Compound 21, 6-(2-fluoro-4-(2-methyl-2H-pyrazolo[3,4-b]pyridin-5-yl)benzyl)-6,7-dihydro-5H-pyrrolo[3,4-b]pyridin-5-one-7,7-d2] | – | 6% | 2420 nM | 76% | Inactive
[2H]C1([2H])c2ncccc2C(=O)N1Cc1c(F)cc(-c2c(F)ccc3nn(C)cc23)cc1F [Compound 37, 6-(2,6-difluoro-4-(5-fluoro-2-methyl-2H-indazol-4-yl)benzyl)-6,7-dihydro-5H-pyrrolo[3,4-b]pyridin-5-one-7,7-d2] | – | 3% | 2300 nM | 64% | Inactive
[2H]C1([2H])c2ncccc2C(=O)N1Cc1c(F)cc(-c2cccc3nn(C)cc23)cc1C1CCCC1 [Compound 223, 6-(2-cyclopentyl-6-fluoro-4-(2-methyl-2H-indazol-4-yl)benzyl)-6,7-dihydro-5H-pyrrolo[3,4-b]pyridin-5-one-7,7-d2] | – | 1% | 5240 nM | 59% | Inactive
[2H]C1([2H])c2ncccc2C(=O)N1Cc1ccc(-c2cc3cn(C)nc3cc2C)cc1 [Compound 16, 6-(4-(2,6-dimethyl-2H-indazol-5-yl)benzyl)-6,7-dihydro-5H-pyrrolo[3,4-b]pyridin-5-one-7,7-d2] | – | 3% | > 10000 nM | 55% | Inactive

Compounds with a lower EC50 (human mAChR M1 [2]), results first:

EC50 (human mAChR M1 [1]) | Emax (human mAChR M1 [1]) | EC50 (human mAChR M1 [2]) | Emax (human mAChR M1 [2]) | Agonist Activity Human M1 EC50 (human mAChR M1 [1]) | SMILES
– | 1% | 1760 nM | 65% | Inactive | [2H]C1([2H])c2ncccc2C(=O)N1Cc1c(F)cc(-c2ccc(OCc3ccccc3)c3nn(C)cc23)cc1F [Compound 129, 6-(4-(7-(benzyloxy)-2-methyl-2H-indazol-4-yl)-2,6-difluorobenzyl)-6,7-dihydro-5H-pyrrolo[3,4-b]pyridin-5-one-7,7-d2]
– | 3% | 1400 nM | 72% | Inactive | [2H]C([2H])([2H])Oc1ccc(-c2cc(F)c(CN3C(=O)c4cccnc4C3([2H])[2H])c(F)c2)c2cnn(C([2H])([2H])[2H])c12 [Compound 95, 6-(2,6-difluoro-4-(7-(methoxy-d3)-1-(methyl-d3)-1H-indazol-4-yl)benzyl)-6,7-dihydro-5H-pyrrolo[3,4-b]pyridin-5-one-7,7-d2]
≥ 10000 nM | 26% | 717 nM | 77% | – | [2H]C1([2H])c2ncccc2C(=O)N1Cc1c(F)cc(-c2ccc(OCCOC(C)C)c3nn(C)cc23)cc1F [Compound 149, 6-(2,6-difluoro-4-(7-(2-isopropoxyethoxy)-2-methyl-2H-indazol-4-yl)benzyl)-6,7-dihydro-5H-pyrrolo[3,4-b]pyridin-5-one-7,7-d2]
> 10000 nM | 2% | 392 nM | 72% | – | [2H]C1([2H])c2ncccc2C(=O)N1Cc1ccc(-c2ccc3nn(C)cc3c2)cc1C [Compound 33, 6-(2-methyl-4-(2-methyl-2H-indazol-5-yl)benzyl)-6,7-dihydro-5H-pyrrolo[3,4-b]pyridin-5-one-7,7-d2]
– | 3% | 239 nM | 81% | Inactive | [2H]C1([2H])c2ncccc2C(=O)N1Cc1c(F)cc(-c2ccc(OC)c3nn(C)cc23)cc1Cl [Compound 163, 6-(2-chloro-6-fluoro-4-(7-methoxy-2-methyl-2H-indazol-4-yl)benzyl)-6,7-dihydro-5H-pyrrolo[3,4-b]pyridin-5-one-7,7-d2]
6120 nM | 27% | 201 nM | 82% | – | [2H]C1([2H])c2ncccc2C(=O)N1Cc1c(C)cc(-c2ccc(OCCOC)c3nn(C)cc23)cc1F [Compound 177, 6-(2-fluoro-4-(7-(2-methoxyethoxy)-2-methyl-2H-indazol-4-yl)-6-methylbenzyl)-6,7-dihydro-5H-pyrrolo[3,4-b]pyridin-5-one-7,7-d2]
8120 nM | 26% | 193 nM | 86% | – | [2H]C1([2H])c2ncccc2C(=O)N1Cc1c(F)cc(-c2ccc(OCC3(C#N)CC3)c3nn(C)cc23)cc1F [Compound 174, 1-(((4-(3,5-difluoro-4-((5-oxo-5,7-dihydro-6H-pyrrolo[3,4-b]pyridin-6-yl-7,7-d2)methyl)phenyl)-2-methyl-2H-indazol-7-yl)oxy)methyl)cyclopropane-1-carbonitrile]
